From ChEMBL document CHEMBL1140609, “Carbonic anhydrase inhibitors. Inhibition of transmembrane isozymes XII (cancer-associated) and XIV with anions” (Bioorg Med Chem Lett, 2007)

Assays:
Carbonic anhydrase 12 = Carbonic anhydrase 12 (Homo sapiens, UniProt O43570); experiment: Inhibition of human recombinant catalytic domain CA12
Carbonic anhydrase 14 = Carbonic anhydrase 14 (Homo sapiens, UniProt Q9ULX7); experiment: Inhibition of human recombinant full length CA14
Carbonic anhydrase 9 = Carbonic anhydrase 9 (Homo sapiens, UniProt Q16790); experiment: Inhibition of human recombinant catalytic domain CA9

Sequence of Carbonic anhydrase 14 (Q9ULX7 whole entry, the tested form may be a part): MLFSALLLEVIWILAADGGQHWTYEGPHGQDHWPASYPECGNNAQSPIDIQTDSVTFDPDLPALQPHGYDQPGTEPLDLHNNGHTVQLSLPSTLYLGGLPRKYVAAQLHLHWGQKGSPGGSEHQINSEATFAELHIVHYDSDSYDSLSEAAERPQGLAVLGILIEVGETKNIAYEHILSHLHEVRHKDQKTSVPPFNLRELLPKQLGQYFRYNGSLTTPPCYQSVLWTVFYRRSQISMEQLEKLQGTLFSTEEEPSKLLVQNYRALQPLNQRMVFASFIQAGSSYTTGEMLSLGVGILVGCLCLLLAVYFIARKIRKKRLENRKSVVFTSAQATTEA
Sequence of Carbonic anhydrase 12 (O43570 whole entry, the tested form may be a part): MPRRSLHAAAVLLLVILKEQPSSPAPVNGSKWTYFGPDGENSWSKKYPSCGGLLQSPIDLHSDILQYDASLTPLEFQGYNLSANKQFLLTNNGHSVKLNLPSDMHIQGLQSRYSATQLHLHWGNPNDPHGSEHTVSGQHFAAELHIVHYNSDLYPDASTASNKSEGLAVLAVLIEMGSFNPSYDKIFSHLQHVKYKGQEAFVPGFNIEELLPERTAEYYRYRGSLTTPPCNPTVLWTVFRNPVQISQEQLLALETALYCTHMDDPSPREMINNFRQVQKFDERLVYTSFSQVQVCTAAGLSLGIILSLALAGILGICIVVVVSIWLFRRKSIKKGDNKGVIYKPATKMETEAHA

Row | Structure (SMILES) | Ki (Carbonic anhydrase 12) [µM] | Ki (Carbonic anhydrase 14) [µM] | Ki (Carbonic anhydrase 9) [µM]
1 | NS(N)(=O)=O [SULFAMIDE] | 830 | 750 | 
2 | OB(O)c1ccccc1 [PHENYLBORONIC ACID] | 800 | 92 | 
3 | NS(=O)(=O)O [SULFAMATE] | 700 | 1090 | 92
